How the values were obtained:
[1] = test system: A2780-CP70 (cisplatin-resistant) ovarian cancer cells; experiment: Cell viability with cisplatin in presence or absence of IC261; format: cell-based; settings: 1 μM IC-261 with increasing doses of cisplatin
Description: (§1) Cisplatin, or cis-diamminedichloroplatinum(II) (CDDP), is a chemotherapy drug commonly used to treat numerous types of cancers including ovarian cancer. Cisplatin contains platinum complexes that crosslink DNA, ultimately triggering apoptosis of the cell. However, many treated cancer relapse and display a resistance to cisplatin. Considering the ability of CSNK1ε inhibitors to reduce viability of cells with amplified c-MYC expression, a similar role of CSNK1ε inhibitors on cisplatin resistant cancer cells was investigated. A2780 and A2780-CP70 (resistant derivative), PEO1 and PEO4 (resistant derivative of PE01) ovarian cancer cell lines were cultured in the presence of increasing doses of cisplatin and the presence or absence of IC261. Cell viability was monitored as described above. […] It is noted that the c-MYC expression level in A2780 cells is yet undetermined.

[2] = test system: A2780 ovarian cancer cells; experiment: as above; format: cell-based; settings: 1 μM IC-261 with increasing doses of cisplatin
Description: as §1

[3] = test system: PEO1 ovarian cancer cells; experiment: as above; format: cell-based; settings: 1 μM IC-261 with low doses of cisplatin
Description: as §1

[4] = Cell viability with increasing IC261, normal c-MYC expressing cells; format: cell-based; settings: human; IC261 at 0.5 log μM and above
Procedure: (§2) The effect of CSNK1ε on the cell viability of ovarian cancer lines was investigated in vitro. First, HFF (non-cancer primary cells) with control vector, RMG-1 (normal c-MYC expressing), CaOV3 (normal c-MYC expressing), HFF with cMYC induced (amplified c-MYC expressing), TOV112D (amplified c-MYC expressing), and COLO720E (amplified c-MYC expressing) were exposed to increasing concentrations of IC261. Cell viability was assessed as described above.

[5] = test system: IMR-32 neuroblastoma cells (amplified MYCN expression); experiment: Cell viability of neuroblastoma cells treated with IC261; format: cell-based
Procedure: Lentiviral vectors expressing Dox-inducible shRNAs targeting CSNK1ε were transduced into SK-N-AS, a neuroblastoma line with normal MYCN expression, and SK-N-BE2 and IMR-32, neuroblastoma lines with amplified MYCN expression. Expression of the shRNAs were induced with Dox and cell viability was assayed after four days using the CellTiter Glo assay (Promega, Madison, Wis.).
To evaluate the therapeutic potential of CSNK1ε kinase inhibitors for the inhibition of tumor cell growth, the kinase function of CSNK1ε polypeptide was blocked with IC261, a small molecule inhibitor of CSNK1ε and d kinase activity (Mashhoon, N., et al., “Crystal Structure of a Conformation-Selective Casein Kinase-1 Inhibitor,” J Biol Chem 275:20052-20060, 2000). Specifically, the sensitivity of MYC overexpressing cells to IC261 relative to control, was determined in vitro utilizing the neuroblastoma cell lines SK-N-AS (normal MYCN expression) and IMR-32 (amplified MYCN expression). Cultured cells were treated with a range of concentrations of IC261 and percent of cell viability was recorded over four days as described above. […] The difference in cell viability was significant at the 1, 5 and 10 μM concentrations.

[6] = test system: CaOV3 cells (normal c-MYC expression); experiment: Cell cycle analysis (Propidium Iodide staining, FACS); format: cell-based, human; settings: 1 μM IC261; 16 and 24 hours
Procedure: (§3) Ovarian cancer cell lines with normal (i.e., low) and amplified expression of c-MYC were assessed for the impact of the CSNK1ε inhibitor IC261 on the progression of the cell cycle. CaOV3 cells (normal c-MYC expression) and TOV112D cells (amplified c-MYC expression) were cultured in 1 μM IC261. The cells were assessed for the state of the cell cycle, namely G1, S-phase, and G2, at time points before and 16 and 24 hours after contact with IC261 by Propidium Iodide staining followed by FACS analysis. […] However, the levels were lower for the cells with amplified c-MYC expression. […] This trend was not observed for the cancer cells with normal c-MYC expression.

[7] = test system: TOV112D cells (amplified c-MYC expression); experiment: as above; format: cell-based, human; settings: 1 μM IC261; 16 and 24 hours
Procedure: as §3

[8] = test system: IMR-32 (amplified MYCN expression) xenograft blastoma tumors; experiment: IMR-32 neuroblastoma xenograft in NOD/SCID mice; format: in vivo
Procedure: To evaluate the therapeutic potential of CSNK1ε kinase inhibitors, IC261, a small molecule inhibitor of CSNK1ε and d kinase activity (Mashhoon, N., et al., “Crystal Structure of a Conformation-Selective Casein Kinase-1 Inhibitor,” J Biol Chem 275:20052-20060, 2000) was administered to mice with established IMR-32 (amplified MYCN expression) xenograft blastoma tumors. Specifically, 10 NOD/SCID mice were injected with 1×10^7 IMR-32 blastoma cells. The tumors were allowed to establish for 6 weeks. The mice were randomized into control and IC261 treatment groups. At the start of treatment, the average tumor size for the control mice was 98.8±42.5 mm^3, whereas the average tumor size for the IC261 treatment group was 121.9±46.9 mm^3. The groups were subcutaneously injected once daily for seven days with 20.5 mg/kg of IC261 or DMSO in 200 μl. During treatment, the tumor size was monitored. […] However, at day three the average tumor volume of the IC261-treated mice was reduced, a trend that continued throughout the remaining treatment schedule, ultimately to a volume of about 100 mm^3. In contrast, the tumor volume of the DMSO-treated mice continued to increase to a volume of about 350 mm^3. Histological sections of tumors from each group were prepared after the 8th day of IC261 treatment. The tumor sections were subjected to hematoxylin and eosin (H-E) stain, TUNEL stain, and BrdU staining to ascertain the cell structure, and frequencies of cell apoptosis, and cell proliferation within the tumors. […] The images shown in FIG. 7D are representative of at least 10 fields viewed over two stained sections per animal.

[9] = test system: TOV112D/Luc human ovarian cancer cells; experiment: Peritoneal carcinomatosis model mice (TOV112D/Luc intraperitoneal xenograft); format: in vivo
Procedure: The effect of CSNK1ε on the cell viability of ovarian cancer cells was then investigated in vivo. Peritoneal carcinomatosis model mice were generated by the intraperitoneal injection of TOV112D/Luc cells. After one week, the mice were randomized into control and experimental groups, which then received daily injections of IC261 or DMSO carrier for three weeks. Weekly Luc imaging was performed for each mouse at the termination of each week of the experiment to monitor the relative viability of cancer cells that have established in the mice. […] As illustrated in the survival graph in FIG. 11B, the DMSO group and IC261 treatment groups diverged in percent survival starting at day 30 when the DMSO group began to experience drastic mortality.

PE01 = experiment: IC261 loss of cell viability, ovarian cancer cell panel; format: cell-based; settings: Homo sapiens
Procedure: as §2
(§4) Similar assays were performed with an additional panel of ovarian cancer cells, including IGROV-1, PE01, DOV13, OAW42, TOV21G, and SKOV3. The log of the half maximal effective concentration (log IC50) was calculated to reflect half the concentration of IC261 required to results in complete loss of cell viability.

SKOV3 = experiment: as above; format: cell-based; settings: Homo sapiens, SK-OV-3
Procedure: as §2, §4

TOV21G = experiment: as above; format: cell-based; settings: Homo sapiens
Procedure: as §2, §4

IGROV-1 = experiment: as above; format: cell-based; settings: Homo sapiens
Procedure: as §2, §4

DOV13 = experiment: as above; format: cell-based; settings: Homo sapiens
Procedure: as §2, §4

OAW42 = experiment: as above; format: cell-based; settings: Homo sapiens, OAW-42
Procedure: as §2, §4

[10] = test system: WNT signaling (β-catenin reporter) in Tet-21N neuroblastoma cells; experiment: Integrated WNT reporter in Tet-21N neuroblastoma cells; format: cell-based; settings: MYCN-on cells
Procedure: (§5) CSNK1ε has been implicated as a positive regulator of WNT signaling (Sakanaka, C., “Phosphorylation and Regulation of Beta-Catenin by Casein Kinase I Epsilon,” J Biochem 132:697-703, 2002). To determine the functional status of WNT activity in neuroblastoma cells with or without amplified MYCN expression, a WNT dual reporter system, employing both consensus (TOP) and mutant (FOP) TCF binding sites was assayed in neuroblastoma cell lines SK-N-AS (MYCN not amplified), SH-Sy5Y (MYCN not amplified), IMR-32 (MYCN amplified and overexpressed), and SK-N-BE2 (MYCN amplified and overexpressed), as described in (Biechele, T. L., et al., “Transcription-Based Reporters of Wnt/beta-Catenin Signaling,” Cold Spring Harb Protoc 2009, pdb prot5223).
A potential direct connection of WNT with MYCN expression was explored utilizing neuroblastoma cells expressing an inducible Tet-MYCN gene. Tet-21N neuroblastoma cells (normal MYCN expression) carrying a Tet-off-MYCN gene, were treated with or without Dox (a tetracycline compound), as described supra. […] Further, the WNT activity was assayed through the detectable activity of an integrated WNT reporter.

[11] = test system: PEO4 (cisplatin-resistant derivative) ovarian cancer cells; experiment: Cell viability with cisplatin in presence or absence of IC261; format: cell-based, human; settings: 1 μM IC-261 with low doses of cisplatin
Description: as §1

[12] = test system: HFF with cMYC induced, TOV112D, COLO720E (amplified c-MYC expressing); experiment: Cell viability with increasing IC261, cells with amplified c-MYC; format: cell-based, human; settings: IC261 at 0.5 log μM and above
Procedure: as §2

[13] = test system: SK-N-AS (normal MYCN expression) cells; experiment: Microscopic analysis of neuroblastoma cells after IC261; format: cell-based; settings: 48 hours; 0.33 μM or 3.3 μM IC261
Procedure: (§6) Microscopic analysis of the SN-N-AS (normal MYCN expression) and IMR-32 (amplified MYCN expression) neuroblastoma cell lines, further supporting the differential effect of the CSNK1ε inhibitor, IC261, on the health and proliferation of neuroblastoma cells overexpressing MYCN. Referring to FIG. 5, top line, micrographs are provided illustrating SK-N-AS (normal MYCN expression) cells in culture before and 48 hours after culture with DMSO, 0.33 μM, or 3.3 μM IC261. Referring to FIG. 5, bottom line, micrographs are provided illustrating IMR-32 cells (amplified MYCN expression) in culture before and 48 hours after culture with DMSO, 0.1 μM, or 1.0 μM IC261.

[14] = test system: IMR-32 cells (amplified MYCN expression); experiment: as above; format: cell-based; settings: 48 hours; 0.1 μM or 1.0 μM IC261
Procedure: as §6

[15] = test system: WNT signaling (β-catenin activity) in COLO720E ovarian cells; experiment: Relative β-catenin activity (WNT signaling) in COLO720E ovarian cells; format: cell-based, human; settings: higher doses of IC261 (0, 0.67, 3.3, 6.67 μM tested)
Procedure: as §5
The impact of stable knock-down of CSNK1ε was assessed for the expression for WNT signal function. To confirm the efficacy of the stable knockdown technique in ovarian cells, Dox-inducible lentivirus constructs encoding shRNAs targeting CSNK1ε were transduced into COLO720E ovarian cells. […] Next, to assess the WNT signaling activity, relative β-catenin activity was assayed as described, supra, for COLO720E ovarian cells transduced with the shRNA encoding lentivirus targeting CSNK1ε. […] A similar effect on relative β-catenin activity was observed upon administration of IC261, the inhibitor of CSNK1ε. […]

[16] = test system: SK-N-AS (normal MYCN expression); settings: 1 μM or 10 μM; 48, 72 and 96 hours
Procedure: (§7) Cyclopamine, a known natural inhibitor of SHH, was administered to SK-N-AS and IMR-32, to assess the impact of SHH inhibition on cell viability of neuroblastoma cells with normal and amplified MYCN expression, respectively. Cyclopamine was administered to the SK-N-AS and IMR-32 in 1 μM or 10 μM doses, and the growth inhibition was assayed at 48, 72 and 96 hours.

[17] = test system: IMR-32 (amplified MYCN expression); settings: 1 μM or 10 μM; 48, 72 and 96 hours; compared to SK-N-AS
Procedure: as §7

## COc1cc(OC)c(/C=C2/C(=O)Nc3ccccc32)c(OC)c1 [IC261]
[1]
  response to cisplatin (cell viability): greatly sensitized
[2]
  response to cisplatin (cell viability): greatly sensitized
[3]
  cell viability with low doses of cisplatin: large reduction in cell viability
[4]
  viability: ≥ 75%
[5]; 48 hours, IC261 0.33 μg/ml and higher
  percent cell viability, IMR-32 compared to SK-N-AS: lower percent cell viability
[5]; 72 hours
  difference in cell viability, IMR-32 vs SK-N-AS: significant difference in cell viability
[5]; 96 hours, higher doses
  difference in cell viability, IMR-32 vs SK-N-AS: not statistically significant
[6]
  cells in the G2 phase: small and transient ability to cause cell cycle arrest in G2
  percentage of cells in the G1 phase: drastically reduced
[7]
  cells in the G2 phase: arrested at the G2 checkpoint
  percentage of cells in the G1 phase: drastically reduced
[8]; 20.5 mg/kg subcutaneously once daily for seven days
  average tumor volume at end of treatment schedule: about 100 mm^3
[8]; after the 8th day of IC261 treatment
  cell proliferation in tumor sections (BrdU stain) vs DMSO control: drastically reduced indications of cell proliferation
[8]; day three of treatment, 20.5 mg/kg s.c. daily
  average tumor volume: reduced
[8]; first two days of treatment, 20.5 mg/kg s.c. daily
  tumor volume vs DMSO-treated mice: no significant difference
[9]; daily injections for three weeks, groups diverged starting at day 30
  survival vs DMSO group: prolonged the life of the subjects
[9]; daily injections, after two weeks
  cancer cell proliferation and viability (Luc imaging) vs DMSO: significantly reduced cancer cell proliferation and viability
[9]; week four
  difference among treatment groups (Luc imaging): much more pronounced
PE01
  IC50: 8.8 µM
SKOV3
  IC50: 4.63 µM
TOV21G
  IC50: 6.55 µM
IGROV-1
  IC50: 585 µM
DOV13
  IC50: 7.09 µM
OAW42
  IC50: 6.61 µM
[10]
  WNT reporter (β-catenin signal): repression of the WNT reporter
[11]
  cell viability with low doses of cisplatin: large reduction in cell viability
[12]
  relative viability: ≤ 25%
[13]
  cell appearance in micrographs: maintained healthy spreading and attachment
[14]
  cell appearance in micrographs: detached from the plate surface and balled up
[15]
  relative β-catenin activity: reduced by more than two thirds

## CC1=C2C[C@H]3[C@@H](CC=C4C[C@@H](O)CC[C@@]43C)[C@@H]2CC[C@]12O[C@@H]1C[C@H](C)CN[C@H]1[C@H]2C [Cyclopamine]
[16]
  growth inhibition: Growth inhibition was detected
[17]
  growth inhibition: more pronounced

From US10188630B2, “Methods for identifying and using inhibitors of casein kinase 1 epsilon isoform for inhibiting the growth and/or proliferation of MYC-driven tumor cells” (Fred Hutchinson Cancer Research Center, priority 2010, dated 2019)
